Experimental data published in US9815815B2, “Non-selective kinase inhibitors” (GILEAD SCIENCES, INC., priority 2013, dated 2017).
Marks after values point to notes of the source that are not given here.

Tests used:
rat MCT+PN model = experiment: Telemetry study of PA pressure in the rat MCT+PN model; assay type: in vivo; details: by inhalation
Experimental: Efficacy study in the rat MCT+PN model. Pneumonectomy and implantation of a TRM53P telemetry monitor in the pulmonary artery (Telemetry Research, New Zealand and ADlnstruments, Colorado) was carried out in rats. Two weeks after MCT, PK10453 (Structure 2) was administered three times daily for 1 week. […] Sampling of PA pressure was performed 5 min before each morning dose in ambulatory animals in room air (estimated atmospheric pressure 716 mm Hg based on elevation of animal facility). […] Telemetry data was obtained for 10 min daily before each morning dose for this protocol.

[1] = test system: PDGFAA stimulated AKT phosphorylation; experiment: In cell Western (ICW), PDGFAA stimulated AKT phosphorylation in human fetal lung fibroblasts; assay type: cell-based; details: comparison in words
Experimental: In cell Western (ICW). […] HLFs were maintained in subculture at no more than 6 passages in DMEM with 5% FBS and 4 mM Glutamax at 37° C., 5% CO2. HLFs were plated and grown to 70-80% confluence in 96 well plates then serum-starved for 48 hours. […] After washing, the signal was quantified using an Odyssey Infrared Imaging System (LI-COR). Phosphoprotein signal (800 nm) was normalized to total protein signal (700 nm) acquired from each well and experimental duplicates on same plate were averaged and reported.

[2] = Body weight of treated subjects; assay type: in vivo, rat; details: treated vs. vehicle groups
[3] = Two-chamber plethysmography in the rat MCT+PN model; assay type: in vivo; parameters: SRaw: unit not given beside the values
Experimental: Plethysmography. Plethysmography was performed with an EMKA dual chamber plethysmograph and IOX software. Parameters measured included breathing frequency, tidal volume, minute ventilation, peak inspiratory and expiratory flow, and airway resistance (SRaw). Animals were acclimatized to the plethysmograph for three days prior to first data acquisition. Measurements were made prior to the first dose of drug and at the end of the study.

STAT3 = experiment: NanoPro immunoassay pSTAT3/STAT3 in lung extracts, MCT+PN model; assay type: in vivo, rat; details: D4 and D8 groups compared to vehicle
Description: (§1) Histology and morphometric analysis. At the end of the study, the heart and lungs were removed from ventilated animals under general anesthesia. Heparinized saline was infused under pressure through the main pulmonary artery. The right upper lobe was immediately tied off and placed in liquid nitrogen for Western blot and NanoPro 100 ™ assay analysis. The heart was removed, and the RV free wall, interventricular septum and LV free wall dissected and weighed. Buffered formalin (10%) was infused under pressure both through the pulmonary artery and the trachea. Morphometric analysis was performed on H&E stained formalin fixed tissue sectioned at 8 μm. The media area and lumen area of pulmonary arterioles were measured with Image J software by a technician blinded to treatment group. Measurements were made on 20 pulmonary arterioles per section. The ratio of the lumen area to the total media area was determined This ratio normalizes the variation in total pulmonary arteriole area. […]
(§2) NanoPro Immunoassay™. Relative differences in phosphorylated ERK1/2 and STAT isoforms were measured with a NanoPro100™ immunoassay system (Protein Simple/Cell Biosciences, CA). […]

[4] = test system: PDGFAA stimulated phosphorylation of ERK1 and ERK2; experiment: PDGFAA stimulated phosphorylation of ERK1 and ERK2 in human fetal lung fibroblasts; assay type: cell-based; details: 1 uM
PDGFRbeta = PDGFRbeta (Homo sapiens, UniProt P09619); experiment: biochemical
Sequence of PDGFRbeta (P09619 33-1106): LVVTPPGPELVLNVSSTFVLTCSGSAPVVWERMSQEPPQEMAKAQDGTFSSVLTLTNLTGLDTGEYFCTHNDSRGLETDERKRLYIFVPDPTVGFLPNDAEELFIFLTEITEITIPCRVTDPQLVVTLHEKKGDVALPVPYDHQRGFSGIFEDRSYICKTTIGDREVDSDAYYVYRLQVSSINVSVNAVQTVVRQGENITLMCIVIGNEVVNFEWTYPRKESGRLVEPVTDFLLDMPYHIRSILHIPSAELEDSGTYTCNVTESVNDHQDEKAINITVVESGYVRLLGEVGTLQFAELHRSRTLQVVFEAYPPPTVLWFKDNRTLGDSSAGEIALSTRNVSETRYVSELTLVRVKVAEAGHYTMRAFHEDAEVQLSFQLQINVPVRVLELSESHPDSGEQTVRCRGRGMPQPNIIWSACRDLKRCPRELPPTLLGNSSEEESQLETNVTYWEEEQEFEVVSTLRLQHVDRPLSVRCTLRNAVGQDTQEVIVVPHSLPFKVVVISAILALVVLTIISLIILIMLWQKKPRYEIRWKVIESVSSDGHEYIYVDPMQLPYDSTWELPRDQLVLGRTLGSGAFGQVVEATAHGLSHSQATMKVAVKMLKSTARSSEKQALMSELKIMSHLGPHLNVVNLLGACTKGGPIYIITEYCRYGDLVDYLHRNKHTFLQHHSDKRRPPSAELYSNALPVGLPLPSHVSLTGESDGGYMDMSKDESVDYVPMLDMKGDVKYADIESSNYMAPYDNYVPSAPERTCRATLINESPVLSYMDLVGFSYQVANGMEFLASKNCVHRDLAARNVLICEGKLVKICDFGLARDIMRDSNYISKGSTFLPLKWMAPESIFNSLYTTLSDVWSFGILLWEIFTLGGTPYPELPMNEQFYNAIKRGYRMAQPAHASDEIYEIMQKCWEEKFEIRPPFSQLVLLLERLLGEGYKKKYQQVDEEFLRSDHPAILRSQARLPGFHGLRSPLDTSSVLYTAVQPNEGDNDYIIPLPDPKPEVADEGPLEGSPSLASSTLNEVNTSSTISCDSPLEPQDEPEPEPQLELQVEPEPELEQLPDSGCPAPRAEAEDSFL
Experimental: (§3) In vitro kinase assay. A Z-lyte kinase assay was performed to determine the inhibition of PDGFRalpha and PDGFRbeta mediated phosphorylation by PK10453 (Structure 2). Ten point titration curves were modeled to calculate the IC50 (Invitrogen Select Screen®).

PDGFRalpha = PDGFRalpha (Homo sapiens, UniProt P16234); experiment: biochemical
Sequence of PDGFRalpha (P16234 24-1089): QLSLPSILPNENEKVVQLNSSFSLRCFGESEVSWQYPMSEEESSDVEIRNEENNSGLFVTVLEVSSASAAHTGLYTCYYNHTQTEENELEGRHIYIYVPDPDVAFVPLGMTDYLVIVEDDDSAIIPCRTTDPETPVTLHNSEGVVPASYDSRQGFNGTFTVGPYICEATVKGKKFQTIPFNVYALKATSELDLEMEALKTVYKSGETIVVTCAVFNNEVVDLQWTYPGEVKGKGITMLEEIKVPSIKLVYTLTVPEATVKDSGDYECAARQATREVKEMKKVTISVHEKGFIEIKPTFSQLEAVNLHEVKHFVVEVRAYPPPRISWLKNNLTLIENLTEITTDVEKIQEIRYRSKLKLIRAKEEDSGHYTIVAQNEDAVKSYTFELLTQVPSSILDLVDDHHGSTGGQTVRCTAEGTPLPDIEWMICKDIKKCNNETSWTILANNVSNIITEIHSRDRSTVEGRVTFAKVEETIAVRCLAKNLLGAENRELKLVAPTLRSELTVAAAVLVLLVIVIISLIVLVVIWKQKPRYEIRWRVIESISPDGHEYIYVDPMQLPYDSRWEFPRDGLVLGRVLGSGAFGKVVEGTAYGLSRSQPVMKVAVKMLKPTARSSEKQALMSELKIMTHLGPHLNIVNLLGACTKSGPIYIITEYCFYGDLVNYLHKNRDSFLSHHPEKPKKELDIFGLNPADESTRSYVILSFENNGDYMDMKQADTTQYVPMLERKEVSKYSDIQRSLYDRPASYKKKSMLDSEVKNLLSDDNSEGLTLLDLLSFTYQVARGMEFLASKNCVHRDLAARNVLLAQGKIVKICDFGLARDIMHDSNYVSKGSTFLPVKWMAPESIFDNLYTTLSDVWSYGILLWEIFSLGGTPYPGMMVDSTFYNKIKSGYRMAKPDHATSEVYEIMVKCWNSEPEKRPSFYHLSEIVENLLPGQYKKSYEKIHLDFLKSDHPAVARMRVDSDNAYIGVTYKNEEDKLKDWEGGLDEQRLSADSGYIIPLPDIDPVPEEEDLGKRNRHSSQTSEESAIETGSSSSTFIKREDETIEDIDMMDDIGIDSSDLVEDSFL
Experimental: as §3

rat MCT model [5] = experiment: PK10453 dose response study in the rat MCT model; assay type: in vivo
Experimental: Efficacy study in the rat MCT model—PK10453 (Structure 2) dose response study in the rat MCT Model. Male Sprague Dawley rats received MCT 60 mg/kg IPMCT, and after 3 weeks, PK10453 (Structure 2) or vehicle control were administered by inhalation. Four groups were studied: vehicle control (4 min exposure) and three treatment groups of PK10453 (Structure 2) with exposure times 2 min (D2), 4 min (D4), or 8 min (D8) three times a day. These regimens were administered for two weeks. The vehicle consisted of aerosolized 1M tosylic acid neutralized with ammonia vapor as described above. The pH of a solution prepared by dissolving captured aerosol particles in water was measured for every dose and was consistently in the range of 5.5-6.0. At the end of the study, the RV systolic pressure was measured, and the heart chambers dissected and weighed.

rat MCT model [6] = details: 8 min inhalation 3x/day, two weeks
Experimental: At the end of the study RVSP pressure was measured; lung and heart fixed in formalin. For measurement of RVSP animals were sedated with isoflurane, intubated via a tracheostomy, and ventilated with a TOPOVENT pressure regulated ventilator (peak inspiratory pressure 18 cm H2O, PEEP 5 cm). After sternotomy, a Scisense high fidelity catheter inserted via the RV apex.
Histology and morphometric analysis. At the end of the study, the heart and lungs were removed from ventilated animals under general anesthesia. Heparinized saline was infused under pressure through the main pulmonary artery. […] The heart was removed, and the RV free wall, interventricular septum and LV free wall dissected and weighed. Buffered formalin (10%) was infused under pressure both through the pulmonary artery and the trachea. Morphometric analysis was performed on H&E stained formalin fixed tissue sectioned at 8 μm. The media area and lumen area of pulmonary arterioles were measured with Image J software by a technician blinded to treatment group. Measurements were made on 20 pulmonary arterioles per section. The ratio of the lumen area to the total media area was determined This ratio normalizes the variation in total pulmonary arteriole area. […] Briefly, pre-capillary arterioles were assigned grade 0 for no evidence of neointimal lesions, grade 1 for less than 50% luminal occlusion, and grade 2 for greater than 50% occlusion.

AKT = experiment: NanoPro immunoassay pAKT/AKT in lung extracts, MCT+PN model; assay type: in vivo, rat
ERK1/2 = experiment: NanoPro immunoassay pERK1/2 in lung homogenates, MCT+PN model; assay type: in vivo, rat; details: D4 and D8 groups compared to vehicle
Description: as §1, §2

[7] = Systemic blood pressure study in ambulatory MCT treated rats; assay type: in vivo, rat; details: inhalation
Experimental: Systemic blood pressure study. The effect of PK10453 (Structure 2) on systemic BP was studied in ambulatory MCT treated rats with DSI PAC40 transmitters implanted in the descending aorta. […] Blood pressure was recorded before each morning dose.

Question: Which results are given for `COc1cc(-c2cncc(N[C@@H](C)c3cccc(NC(=O)c4cncc(C)c4)c3)n2)ccc1O` [PK10453, (S)-N-(3-(1-((6-(4-hydroxy-3-methoxyphenyl)pyrazin-2yl)amino)ethyl)phenyl)-5-methylnicotinamide]?
Answer: efficacy in the MCT+PN model, in words (rat MCT+PN model): prevented the progression of PAH; IC50 for PDGFAA stimulated phosphorylation of AKT, PK10453 vs imatinib [1]: not significantly different; body weight, in words [2]: trend to a slower rate of decline in body weight; MV ([3]; day 1, D4, mean): 223.24 mL/min; PEF ([3]; day 1, D4, mean): 11.04; PIF ([3]; day 1, D4, mean): 9.82; SRaw ([3]; day 1, D4, mean): 39.73; TV ([3]; day 1, D4, mean): 1.00 mL; f ([3]; day 1, D4, mean): 224.68 breaths per minute; MV ([3]; day 1, D8, mean): 174.68 mL/min; PEF ([3]; day 1, D8, mean): 9.43; PIF ([3]; day 1, D8, mean): 8.54; SRaw ([3]; day 1, D8, mean): 36.01; TV ([3]; day 1, D8, mean): 0.74 mL; f ([3]; day 1, D8, mean): 259.13 breaths per minute; MV ([3]; day 15, D4, mean): 176.12§; PEF ([3]; day 15, D4, mean): 9.33*; PIF ([3]; day 15, D4, mean): 7.82*; SRaw ([3]; day 15, D4, mean): 33.09; TV ([3]; day 15, D4, mean): 0.85; f ([3]; day 15, D4, mean): 217.12 breaths per minute; MV ([3]; day 15, D8, mean): 128.49; PEF ([3]; day 15, D8, mean): 6.64; PIF ([3]; day 15, D8, mean): 6.06; SRaw ([3]; day 15, D8, mean): 49.26; TV ([3]; day 15, D8, mean): 0.63; f ([3]; day 15, D8, mean): 232.11 breaths per minute; effect on lung function, in words ([3]; inhaled, 2-wk course): did not adversely affect lung function; pSTAT3/STAT3 ratio (STAT3): significant reduction; decreasing PDGF AA stimulated ppERK1 and ppERK2 formation [4]: equally effective; IC50 (PDGFRbeta): 10.1 nM; IC50 (PDGFRalpha): 35 nM; reduction in RVSP compared to the vehicle treated group (rat MCT model [5]; D4): 44%; reduction in RVSP compared to the vehicle treated group (rat MCT model [5]; D8): 54%; RV hypertrophy, ratio (RV+IVS)/LV weight (rat MCT model [5]; inhalation, two weeks, in words): significant reduction; decrease of RV systolic pressure (rat MCT model [5]; rat MCT model, inhalation): 50%; End systolic volume (rat MCT model [6]): 99.5 ± 10 µL; pAKT(Thr308)/AKT ratio in lung extracts (AKT; D4, D8 vs vehicle): not significantly different; pAKT(Ser473)/AKT ratio in lung extracts (AKT; treated vs vehicle): significant reduction; pERK1/ERK1 in lung homogenates (ERK1/2): significant reductions; ppERK1/ERK1 in lung homogenates (ERK1/2): significant reductions; effect on systemic BP, in words [7]: did not have an adverse effect
